{
  "source": "ChEMBL document CHEMBL5465560",
  "about": "“Selectivity Literature for EUbOPEN Chemogenomic Library” (2024)",
  "key": {"[1]": {"target": "Cyclin-dependent kinase 2 (Homo sapiens, UniProt P24941)", "experiment": "Selectivity interaction (ActivX KiNativ screen (ex vivo kinase selectivity in human PBMCs)) EUB0001619a CDK2", "assay_type": "cell-based", "settings": "PBMC, at 1 µM"}, "[2]": {"target": "BMP-2-inducible protein kinase (Homo sapiens) (UniProt Q9NSY1)", "sequence (Q9NSY1 whole entry, looked up)": "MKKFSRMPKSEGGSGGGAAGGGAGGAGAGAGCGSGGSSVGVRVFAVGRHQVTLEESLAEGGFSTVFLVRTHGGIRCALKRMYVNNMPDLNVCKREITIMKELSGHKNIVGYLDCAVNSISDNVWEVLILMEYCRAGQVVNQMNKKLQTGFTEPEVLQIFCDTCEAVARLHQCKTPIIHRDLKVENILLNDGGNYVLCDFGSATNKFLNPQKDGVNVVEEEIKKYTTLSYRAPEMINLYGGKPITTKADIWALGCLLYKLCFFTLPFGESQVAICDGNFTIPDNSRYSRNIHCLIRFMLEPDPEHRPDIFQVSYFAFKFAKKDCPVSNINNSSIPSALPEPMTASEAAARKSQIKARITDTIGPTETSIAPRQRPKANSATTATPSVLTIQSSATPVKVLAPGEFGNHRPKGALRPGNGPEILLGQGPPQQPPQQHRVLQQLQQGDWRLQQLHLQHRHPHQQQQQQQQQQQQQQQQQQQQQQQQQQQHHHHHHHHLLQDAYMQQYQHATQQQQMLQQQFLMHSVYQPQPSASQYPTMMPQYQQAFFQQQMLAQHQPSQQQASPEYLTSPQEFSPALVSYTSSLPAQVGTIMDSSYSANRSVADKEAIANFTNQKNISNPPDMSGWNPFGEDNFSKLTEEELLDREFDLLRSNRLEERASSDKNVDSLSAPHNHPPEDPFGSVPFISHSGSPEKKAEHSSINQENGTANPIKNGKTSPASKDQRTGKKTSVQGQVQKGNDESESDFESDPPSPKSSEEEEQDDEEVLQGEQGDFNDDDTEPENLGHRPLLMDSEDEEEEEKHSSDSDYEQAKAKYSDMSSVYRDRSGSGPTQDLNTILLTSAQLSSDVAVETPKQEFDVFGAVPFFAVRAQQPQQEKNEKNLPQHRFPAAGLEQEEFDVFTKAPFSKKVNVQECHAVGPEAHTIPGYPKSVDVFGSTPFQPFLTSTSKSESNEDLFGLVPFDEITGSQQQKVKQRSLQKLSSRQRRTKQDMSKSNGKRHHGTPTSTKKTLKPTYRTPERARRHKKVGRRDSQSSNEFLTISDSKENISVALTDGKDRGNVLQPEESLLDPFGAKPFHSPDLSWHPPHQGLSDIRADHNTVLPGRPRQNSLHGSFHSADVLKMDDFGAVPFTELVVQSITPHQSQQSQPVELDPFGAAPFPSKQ", "experiment": "Selectivity interaction (KinomeScan (DiscoverX)) EUB0001619a BMP2K", "settings": "at 1 µM"}, "[3]": {"target": "T1, Activin receptor type-1B (Homo sapiens) (UniProt P36896)", "T1 sequence (whole entry)": "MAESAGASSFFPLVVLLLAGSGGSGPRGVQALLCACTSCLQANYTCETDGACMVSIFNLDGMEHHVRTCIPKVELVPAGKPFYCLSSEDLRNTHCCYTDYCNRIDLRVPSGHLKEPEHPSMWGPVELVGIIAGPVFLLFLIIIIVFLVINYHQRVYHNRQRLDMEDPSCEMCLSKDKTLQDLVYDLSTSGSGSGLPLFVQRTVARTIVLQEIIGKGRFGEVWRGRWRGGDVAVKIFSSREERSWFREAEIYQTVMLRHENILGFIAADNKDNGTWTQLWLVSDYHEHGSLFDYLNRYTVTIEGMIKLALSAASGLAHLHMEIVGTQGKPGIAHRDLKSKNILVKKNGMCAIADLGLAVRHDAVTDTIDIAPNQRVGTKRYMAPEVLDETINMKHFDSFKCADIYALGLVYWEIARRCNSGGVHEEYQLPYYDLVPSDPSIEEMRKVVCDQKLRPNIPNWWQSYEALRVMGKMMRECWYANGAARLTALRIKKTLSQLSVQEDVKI", "experiment": "Selectivity interaction (KinomeScan (DiscoverX)) EUB0000595a ACVR1B", "settings": "at 10 µM"}, "[4]": {"target": "T2, Histone-lysine N-methyltransferase SMYD3 (Homo sapiens) (UniProt Q9H7B4)", "T2 sequence (whole entry)": "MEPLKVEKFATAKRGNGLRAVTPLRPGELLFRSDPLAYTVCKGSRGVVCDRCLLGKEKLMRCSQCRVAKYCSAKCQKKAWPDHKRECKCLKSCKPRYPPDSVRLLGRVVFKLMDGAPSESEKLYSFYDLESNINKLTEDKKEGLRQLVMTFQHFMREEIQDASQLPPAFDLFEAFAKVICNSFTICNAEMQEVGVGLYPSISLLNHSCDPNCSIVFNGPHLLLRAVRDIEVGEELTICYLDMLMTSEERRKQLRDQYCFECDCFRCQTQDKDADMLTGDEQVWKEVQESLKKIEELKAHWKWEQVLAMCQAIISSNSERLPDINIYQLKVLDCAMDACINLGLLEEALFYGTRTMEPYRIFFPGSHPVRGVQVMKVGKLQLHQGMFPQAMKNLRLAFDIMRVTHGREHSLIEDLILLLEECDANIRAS", "settings": "at 10 µM"}, "[5]": {"target": "Cyclin-dependent kinase-like 1 (Homo sapiens) (UniProt Q00532)", "sequence (Q00532 whole entry)": "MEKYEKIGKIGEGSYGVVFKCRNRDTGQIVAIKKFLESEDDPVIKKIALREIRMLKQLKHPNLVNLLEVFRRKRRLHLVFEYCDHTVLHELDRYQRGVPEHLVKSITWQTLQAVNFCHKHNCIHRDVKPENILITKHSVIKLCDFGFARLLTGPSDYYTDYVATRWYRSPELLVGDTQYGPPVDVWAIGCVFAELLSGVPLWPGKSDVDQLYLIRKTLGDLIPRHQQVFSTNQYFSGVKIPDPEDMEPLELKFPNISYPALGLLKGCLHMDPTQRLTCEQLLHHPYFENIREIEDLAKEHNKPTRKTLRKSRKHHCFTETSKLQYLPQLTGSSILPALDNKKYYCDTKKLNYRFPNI", "settings": "at 10 µM"}, "[6]": {"target": "Cyclin-dependent kinase 13 (Homo sapiens, UniProt Q14004)", "experiment": "Selectivity interaction (KinomeScan (DiscoverX)) EUB0001049a CDK13", "settings": "at 1 µM"}, "[7]": {"target": "Ribosomal protein S6 kinase alpha-3 (Homo sapiens, UniProt P51812)", "sequence (P51812 whole entry)": "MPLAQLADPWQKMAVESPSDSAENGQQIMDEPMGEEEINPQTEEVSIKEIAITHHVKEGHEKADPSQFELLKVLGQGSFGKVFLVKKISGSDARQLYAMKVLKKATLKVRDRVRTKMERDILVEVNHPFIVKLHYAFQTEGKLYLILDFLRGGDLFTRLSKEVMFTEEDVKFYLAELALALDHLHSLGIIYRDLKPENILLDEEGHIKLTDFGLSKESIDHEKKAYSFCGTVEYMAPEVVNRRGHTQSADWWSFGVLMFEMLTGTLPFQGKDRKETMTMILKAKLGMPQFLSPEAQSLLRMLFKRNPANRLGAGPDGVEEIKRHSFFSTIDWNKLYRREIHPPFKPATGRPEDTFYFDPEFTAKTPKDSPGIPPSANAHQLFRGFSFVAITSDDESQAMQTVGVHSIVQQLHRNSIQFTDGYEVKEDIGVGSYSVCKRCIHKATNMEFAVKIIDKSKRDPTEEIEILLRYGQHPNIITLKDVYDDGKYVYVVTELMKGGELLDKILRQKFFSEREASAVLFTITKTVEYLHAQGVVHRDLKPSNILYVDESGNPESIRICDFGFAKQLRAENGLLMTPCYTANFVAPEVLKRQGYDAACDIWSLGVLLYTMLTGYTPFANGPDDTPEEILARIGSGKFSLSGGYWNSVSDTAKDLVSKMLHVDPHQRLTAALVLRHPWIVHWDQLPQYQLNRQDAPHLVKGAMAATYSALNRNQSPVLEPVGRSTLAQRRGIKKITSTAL", "experiment": "Selectivity interaction (KinomeScan (DiscoverX)) EUB0001049a RPS6KA3", "settings": "at 1 µM"}, "[8]": {"target": "Serine/threonine-protein kinase VRK2 (Homo sapiens) (UniProt Q86Y07)", "sequence (Q86Y07 whole entry)": "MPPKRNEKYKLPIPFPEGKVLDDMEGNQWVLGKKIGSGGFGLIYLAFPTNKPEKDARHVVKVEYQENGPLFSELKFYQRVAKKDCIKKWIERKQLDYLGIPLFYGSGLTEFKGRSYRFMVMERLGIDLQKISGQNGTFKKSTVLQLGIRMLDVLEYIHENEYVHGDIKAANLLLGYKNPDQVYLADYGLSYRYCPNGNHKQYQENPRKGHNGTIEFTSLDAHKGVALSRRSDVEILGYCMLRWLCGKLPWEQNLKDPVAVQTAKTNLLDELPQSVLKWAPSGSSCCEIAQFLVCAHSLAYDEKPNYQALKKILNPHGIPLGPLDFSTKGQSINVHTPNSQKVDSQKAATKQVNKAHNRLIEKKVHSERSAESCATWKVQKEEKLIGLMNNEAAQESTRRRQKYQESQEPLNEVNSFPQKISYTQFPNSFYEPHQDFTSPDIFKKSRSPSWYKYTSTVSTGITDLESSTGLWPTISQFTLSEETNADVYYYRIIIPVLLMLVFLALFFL", "experiment": "Selectivity interaction (KinomeScan (DiscoverX)) EUB0000666a VRK2", "settings": "at 10 µM"}, "[9]": {"target": "Cyclin-dependent kinase 15 (Homo sapiens) (UniProt Q96Q40)", "sequence (Q96Q40 whole entry)": "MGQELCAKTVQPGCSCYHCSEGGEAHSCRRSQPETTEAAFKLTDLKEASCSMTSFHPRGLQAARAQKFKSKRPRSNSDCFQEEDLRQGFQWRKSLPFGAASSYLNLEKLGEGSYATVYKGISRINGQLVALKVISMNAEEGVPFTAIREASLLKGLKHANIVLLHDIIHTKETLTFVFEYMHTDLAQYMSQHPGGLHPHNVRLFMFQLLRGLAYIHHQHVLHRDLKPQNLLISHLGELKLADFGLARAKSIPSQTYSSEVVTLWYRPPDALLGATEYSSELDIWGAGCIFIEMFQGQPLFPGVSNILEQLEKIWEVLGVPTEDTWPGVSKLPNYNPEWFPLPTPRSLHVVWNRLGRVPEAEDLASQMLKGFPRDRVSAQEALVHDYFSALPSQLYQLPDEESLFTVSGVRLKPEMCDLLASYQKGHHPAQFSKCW", "experiment": "Selectivity interaction (KinomeScan (DiscoverX)) EUB0000666a CDK15", "settings": "at 10 µM"}, "[10]": {"target": "Dual specificity testis-specific protein kinase 1 (Homo sapiens) (UniProt Q15569)", "sequence (Q15569 whole entry, looked up)": "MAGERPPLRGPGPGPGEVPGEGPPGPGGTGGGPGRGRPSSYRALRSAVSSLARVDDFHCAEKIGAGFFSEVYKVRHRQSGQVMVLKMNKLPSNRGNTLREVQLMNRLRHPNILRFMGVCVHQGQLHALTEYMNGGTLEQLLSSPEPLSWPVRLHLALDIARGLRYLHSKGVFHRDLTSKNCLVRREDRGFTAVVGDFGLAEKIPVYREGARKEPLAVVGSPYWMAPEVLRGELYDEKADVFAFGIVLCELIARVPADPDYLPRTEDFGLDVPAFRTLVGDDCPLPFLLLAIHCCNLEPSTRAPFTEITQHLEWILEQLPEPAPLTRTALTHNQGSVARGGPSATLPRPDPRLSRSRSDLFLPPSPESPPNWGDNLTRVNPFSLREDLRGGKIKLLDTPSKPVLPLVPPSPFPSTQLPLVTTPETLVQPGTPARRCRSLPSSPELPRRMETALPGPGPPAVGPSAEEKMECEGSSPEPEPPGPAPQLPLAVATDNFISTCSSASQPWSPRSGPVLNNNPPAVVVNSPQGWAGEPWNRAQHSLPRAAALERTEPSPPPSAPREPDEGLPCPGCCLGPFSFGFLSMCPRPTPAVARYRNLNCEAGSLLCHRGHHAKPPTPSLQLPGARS", "experiment": "Selectivity interaction (KinomeScan (DiscoverX)) EUB0000666a TESK1", "settings": "at 10 µM"}, "[11]": {"target": "T3, Interleukin-1 receptor-associated kinase 3 (Homo sapiens) (UniProt Q9Y616)", "T3 sequence (whole entry)": "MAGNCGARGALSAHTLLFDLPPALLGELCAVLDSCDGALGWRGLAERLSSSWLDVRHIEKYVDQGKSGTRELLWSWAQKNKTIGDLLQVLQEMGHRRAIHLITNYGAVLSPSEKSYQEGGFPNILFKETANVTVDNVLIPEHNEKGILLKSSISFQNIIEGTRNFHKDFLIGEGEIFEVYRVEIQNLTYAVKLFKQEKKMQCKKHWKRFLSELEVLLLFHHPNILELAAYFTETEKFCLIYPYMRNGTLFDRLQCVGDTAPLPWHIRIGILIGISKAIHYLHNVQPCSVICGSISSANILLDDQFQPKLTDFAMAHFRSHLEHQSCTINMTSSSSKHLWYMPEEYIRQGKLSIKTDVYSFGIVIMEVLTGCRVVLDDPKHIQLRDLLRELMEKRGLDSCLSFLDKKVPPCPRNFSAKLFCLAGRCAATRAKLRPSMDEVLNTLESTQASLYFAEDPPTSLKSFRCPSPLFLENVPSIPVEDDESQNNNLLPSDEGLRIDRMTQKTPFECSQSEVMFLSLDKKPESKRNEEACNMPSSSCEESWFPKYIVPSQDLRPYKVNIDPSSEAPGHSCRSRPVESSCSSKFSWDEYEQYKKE", "experiment": "Selectivity interaction (KinomeScan (DiscoverX)) EUB0000695a IRAK3", "settings": "at 100 nM"}},
  "data": [
    {"compound": "N#Cc1cccc(-c2c[nH]c3ncnc(N4CCOCC4)c23)c1", "values": [
      {"measurement": "% of inhibition", "setting": "[1]", "value": 9, "unit": "%"},
      {"measurement": "% of control", "setting": "[2]", "value": 54, "unit": "%"}
    ]},
    {"compound": "COCC(=O)NC/C=C/c1ccc2ncnc(Nc3ccc(Oc4ccc(C)nc4)c(C)c3)c2c1", "note": "[CP-724714]", "values": [
      {"measurement": "% of control", "setting": "[3]", "value": 100, "unit": "%"}
    ]},
    {"compound": "CNCCN1CCC(c2cc(CN(C)C(=O)c3cccc(Oc4ccccc4)c3)ccn2)CC1", "values": [
      {"measurement": "% activity", "setting": "[4]", "value": "> 90", "unit": "%"}
    ]},
    {"compound": "Cc1cc([C@@H](C)Nc2ccccc2C(=O)O)c2nc(N3CCOCC3)cc(=O)n2c1", "note": "[AZD-6482]", "values": [
      {"measurement": "% of control", "setting": "[5]", "value": 100, "unit": "%"}
    ]},
    {"compound": "COc1cc(Nc2nc(C)cc(-c3cnn4nc(OC)ccc34)n2)cc(C(F)(F)F)c1", "values": [
      {"measurement": "% of control", "setting": "[6]", "value": 100, "unit": "%"},
      {"measurement": "% of control", "setting": "[7]", "value": 77, "unit": "%"}
    ]},
    {"compound": "O=C(NOC[C@H](O)CO)c1ccc(F)c(F)c1Nc1ccc(I)cc1F", "values": [
      {"measurement": "% of control", "setting": "[8]", "value": 100, "unit": "%"},
      {"measurement": "% of control", "setting": "[9]", "value": 78, "unit": "%"},
      {"measurement": "% of control", "setting": "[10]", "value": 98, "unit": "%"}
    ]},
    {"compound": "Cc1cc(F)c(C(=O)Nc2cccc(-c3nncn3C(C)C)n2)cc1-n1cnc(C2CC2)c1", "values": [
      {"measurement": "% of control", "setting": "[11]", "value": 100, "unit": "%"}
    ]}
  ]
}
